Biological target: T1, PD-1/PD-L1 (Homo sapiens, UniProt Q9NZQ7)
T1 construct: purchased Cisbio 63ADK000CPDEC
Test: PD-1/PD-L1 homogeneous time-resolved fluorescence (HTRF) binding assay
Settings: 665 nm/620 nm ratio
Description: Test Example 1: Detect the Inhibitory Effect of the Compound to the Binding of PD-1/PD-L1 Protein
The PD-1/PD-L1 homogeneous time-resolved fluorescence method is used to detect the binding ability of the compound with PD-L1.
PD-1/PD-L1 binding assay kit (Cisbio, Cat #63ADK000CPDEC) was chosen, which contains two proteins Tag 1-PD-L1 and Tag 2-PD-1, and two antibodies Anti-Tag1-Eu^3+ and Anti-Tag2-XL 665. The principle of detection was: Anti-tag1-Eu^3+ was used as the donor of HTRF, and Anti-Tag2-XL 665 was used as the acceptor of HTRF. When Tag 1-PD-L1 interacts with Tag 2-PD-1, the added HTRF donor and the acceptor are close to each other. After the donor has received the excitation energy, part of the energy was transferred to the acceptor, thus generating 665 nm emission light. […] The inhibitory effect of the compound can be determined by comparing the ratio of 665 nm/620 nm. Tag 1-PD-L1 was diluted with Diluent buffer (cat #62DLBDDF) to a working concentration of 10 nM, Tag 2-PD-1 was diluted with Diluent buffer to a working concentration of 500 nM, Anti-Tag1-Eu^3+ was diluted with detection buffer (cat #62DB1FDG) at a ratio of 1:100, Anti-Tag2-XL 665 was diluted with detection buffer at a ratio of 1:20, and the compound to be detected was diluted with diluent buffer to a final concentration of 2×. Compound solution (2 μL) was added to each well of a 384-well plate, then Tag 1-PD-L1 (4 μL) and Tag 2-PD-1 (4 μL) were added successively. The mixture was incubated at room temperature for 15 minutes. Then Anti-Tag1-Eu^3+ (5 μL) and Anti-Tag2-XL 665 (5 μL) were added, and the mixture was incubated overnight at room temperature. BioTek Synergy™ Neo2 multifunctional microplate reader was used to detect so as to provide the 665 nm/620 nm ratio. PrismGraphd 5.02 was used to fit the IC50 curve.

T1 sequence (Q9NZQ7 19-238 limits assumed): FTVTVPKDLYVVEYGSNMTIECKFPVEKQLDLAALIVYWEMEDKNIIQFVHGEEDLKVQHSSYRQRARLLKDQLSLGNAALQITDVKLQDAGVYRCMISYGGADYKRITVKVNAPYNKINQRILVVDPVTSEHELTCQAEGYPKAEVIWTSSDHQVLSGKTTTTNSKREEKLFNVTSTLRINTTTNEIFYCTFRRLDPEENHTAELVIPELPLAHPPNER

| SMILES | IC50 [nM] |
| --- | --- |
| COc1nc(-c2cccc(-c3cccc(Nc4nccc5sc(CN6CCC[C@@H]6C(=O)O)nc45)c3Cl)c2Cl)cc(C)c1CNC[C@@H]1CCC(=O)N1 [Compound 47] | < 100 |
| COc1nc(-c2cccc(-c3cccc(Nc4nccc5sc(CN6C[C@@H](O)C[C@H]6C(=O)O)nc45)c3Cl)c2Cl)cc(C)c1CNC[C@@H]1CCC(=O)N1 [Compound 48] | < 100 |
| COc1nc(-c2cccc(-c3cccc(Nc4nccc5sc(CN6CCC(C)(C(=O)O)CC6)nc45)c3Cl)c2Cl)cc(C)c1CNC[C@@H]1CCC(=O)N1 [Compound 49] | < 100 |
| COc1nc(-c2cccc(-c3cccc(Nc4nccc5sc(CN[C@H]6CC[C@H](C(=O)O)CC6)nc45)c3Cl)c2Cl)cc(C)c1CNC[C@@H]1CCC(=O)N1 [Compound 50] | < 100 |
| COc1nc(-c2cccc(-c3cccc(Nc4nccc5sc(CN[C@H]6CC[C@@H](C(=O)O)CC6)nc45)c3Cl)c2Cl)cc(C)c1CNC[C@@H]1CCC(=O)N1 [Compound 51] | < 100 |
| COc1nc(-c2cccc(-c3cccc(Nc4nccc5sc(CN6CCC(CC(=O)O)C6)nc45)c3Cl)c2Cl)cc(C)c1CNC[C@@H]1CCC(=O)N1 (stereo partly drawn) [Compound 52] | < 100 |
| COc1nc(-c2cccc(-c3cccc(Nc4nccc5sc(CN6CCC(CC(=O)O)CC6)nc45)c3Cl)c2Cl)cc(C)c1CNC[C@@H]1CCC(=O)N1 [Compound 53] | < 100 |
| COc1cc(-c2cccc(-c3cccc(Nc4nccc5sc(CN6CCC(C(=O)O)CC6)nc45)c3Cl)c2Cl)cc(C)c1CNC[C@@H]1CCC(=O)N1 [Compound 55] | < 100 |
| COc1nc(-c2cccc(-c3cccc(Nc4nccc5sc(CN6CCC(C#N)CC6)nc45)c3Cl)c2Cl)cc(C)c1CNC[C@@H]1CCC(=O)N1 [Compound 56] | < 100 |

From patent US20210347785A1, “PREPARATION AND APPLICATION OF AROMATIC COMPOUND HAVING IMMUNOREGULATORY FUNCTION” (SHANGHAI ENNOVABIO PHARMACEUTICALS CO., LTD., priority 2018, published 2021)
